The text below walks through data of patent US10618930B2, “Compounds for the treatment of cancer” (Eisai R&D Management Co., Ltd., priority 2017, dated 2020).

The structures appear in SMILES notation.

The experiment concerns the target REF Human STING (Homo sapiens, UniProt Q86WV6). Put plainly: STING variant specific reporter assay, REF-STING (THP1-Dual KO-STING cells). Conditions: read-out: Human STING EC50 (μM) REF; Table 5; ammonium salt form of each compound.

Chain of REF Human STING (Q86WV6 whole entry): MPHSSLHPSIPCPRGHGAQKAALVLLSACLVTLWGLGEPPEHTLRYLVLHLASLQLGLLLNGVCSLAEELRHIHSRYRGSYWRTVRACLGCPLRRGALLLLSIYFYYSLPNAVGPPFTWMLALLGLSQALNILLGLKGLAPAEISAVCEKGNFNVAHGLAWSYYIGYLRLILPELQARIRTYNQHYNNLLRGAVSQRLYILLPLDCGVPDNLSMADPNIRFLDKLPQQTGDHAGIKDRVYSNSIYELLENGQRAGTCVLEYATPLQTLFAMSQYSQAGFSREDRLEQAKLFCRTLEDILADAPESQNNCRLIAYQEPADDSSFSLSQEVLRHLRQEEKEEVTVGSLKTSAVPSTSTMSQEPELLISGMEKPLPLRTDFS

`O=P1(S)OC[C@H]2O[C@@H]3[C@H](F)[C@@H]2OP(=O)(S)OC[C@H]2OC([C@H](F)[C@@H]2O1)n1cnc2c(ncnc21)NCC/C=C/CNc1ncnc2c1ncn23` (single isomer, unassigned) [Compound 37]: the EC50 (in general, the concentration giving half of the maximal effect) was greater than 100 µM.
